Reference: patent US20230092890A1, “1, 3, 4-Oxadiazole derivative compounds as histone deacetylase 6 inhibitor, and the pharmaceutical composition comprising the same” (Chong Kun Dang Pharmaceutical Corp., priority 2019, published 2023)

Assays:
[1] = biological target: T1, HDAC1 (Homo sapiens, UniProt Q13547); test: HDAC enzyme activity inhibition (in vitro), HDAC1 Fluorimetric Drug Discovery Assay Kit; type: biochemical; conditions: samples at 100, 1000 and 10000 nM; 37° C. 60 minutes; fluorescence Ex 390, Em 460; read-out: HDAC1 IC50
T1 construct: purchased Enzolifesciences BML-AK511
Description: <Experimental Example 1> Identification of HDAC Enzyme Activity Inhibition (In Vitro)
A selective HDAC6 inhibitor is important for selectivity of HDAC1 inhibition, which is a cause of side effects, and thus HDAC1/6 enzyme selectivity and cell selectivity (HDAC1: histone acetylation/HDAC6: tubulin acetylation) were identified.
(§1) A HDAC enzyme inhibitory capacity of a test material was measured by using HDAC1 Fluorimetric Drug Discovery Assay Kit (Enzolifesciences: BML-AK511) and HDAC6 human recombinant (Calbiochem: 382180). For a HDAC1 assay, samples were treated at a concentration of 100, 1000 and 10000 nM. For a HDAC6 assay, samples were treated at a concentration of 0.1, 1, 10, 100 and 1000 nM. After the above sample treatment, a reaction was continued at 37° C. for 60 minutes, then treated with a developer, and then subjected to a reaction at 37° C. for 30 minutes, after which fluorescence intensity (Ex 390, Em 460) was measured by using FlexStatin3 (Molecular device).

[2] = biological target: T2, HDAC6 human recombinant (Homo sapiens, UniProt Q9UBN7); test: HDAC enzyme activity inhibition (in vitro), HDAC6 assay; type: biochemical; conditions: samples at 0.1, 1, 10, 100 and 1000 nM; 37° C. 60 minutes; fluorescence Ex 390, Em 460; read-out: HDAC6 IC50
T2 construct: purchased Calbiochem 382180
T2 sequence (Q9UBN7 1-1215): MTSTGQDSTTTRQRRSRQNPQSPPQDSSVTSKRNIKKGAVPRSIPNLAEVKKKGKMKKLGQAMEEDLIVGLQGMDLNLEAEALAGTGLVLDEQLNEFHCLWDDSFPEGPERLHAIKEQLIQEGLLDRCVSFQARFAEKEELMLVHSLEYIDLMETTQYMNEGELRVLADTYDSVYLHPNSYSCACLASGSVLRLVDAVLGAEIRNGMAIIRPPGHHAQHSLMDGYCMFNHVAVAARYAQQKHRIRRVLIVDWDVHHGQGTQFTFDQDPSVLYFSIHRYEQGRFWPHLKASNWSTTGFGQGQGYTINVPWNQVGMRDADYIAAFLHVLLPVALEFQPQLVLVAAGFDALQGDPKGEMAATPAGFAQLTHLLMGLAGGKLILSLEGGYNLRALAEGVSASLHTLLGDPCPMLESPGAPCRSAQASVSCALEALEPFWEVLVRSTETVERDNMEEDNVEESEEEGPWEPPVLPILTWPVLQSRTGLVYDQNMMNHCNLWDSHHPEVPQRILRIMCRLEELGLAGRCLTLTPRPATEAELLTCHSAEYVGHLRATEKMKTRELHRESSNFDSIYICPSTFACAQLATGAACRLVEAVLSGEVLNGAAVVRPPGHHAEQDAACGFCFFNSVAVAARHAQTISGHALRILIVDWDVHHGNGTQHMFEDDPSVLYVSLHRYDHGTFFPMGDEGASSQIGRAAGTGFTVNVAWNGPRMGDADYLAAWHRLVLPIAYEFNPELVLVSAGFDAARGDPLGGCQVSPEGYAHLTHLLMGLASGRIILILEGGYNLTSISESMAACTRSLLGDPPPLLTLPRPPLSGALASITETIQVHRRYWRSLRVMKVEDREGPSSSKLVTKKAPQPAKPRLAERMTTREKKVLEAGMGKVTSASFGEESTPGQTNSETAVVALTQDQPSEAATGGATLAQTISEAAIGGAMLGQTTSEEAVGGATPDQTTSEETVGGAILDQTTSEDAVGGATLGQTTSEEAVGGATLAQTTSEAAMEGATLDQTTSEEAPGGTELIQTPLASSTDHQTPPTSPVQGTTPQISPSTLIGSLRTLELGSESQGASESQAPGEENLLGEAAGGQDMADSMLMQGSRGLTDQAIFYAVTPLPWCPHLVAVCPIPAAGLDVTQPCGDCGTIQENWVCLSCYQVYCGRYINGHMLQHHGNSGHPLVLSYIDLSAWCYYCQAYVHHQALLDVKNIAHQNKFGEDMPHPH
Description: as §1, with “For a HDAC6 assay, samples were treated at a concentration of 0.1, 1, 10, 100 and 1000 nM.” left out

T1 sequence (Q13547 whole entry): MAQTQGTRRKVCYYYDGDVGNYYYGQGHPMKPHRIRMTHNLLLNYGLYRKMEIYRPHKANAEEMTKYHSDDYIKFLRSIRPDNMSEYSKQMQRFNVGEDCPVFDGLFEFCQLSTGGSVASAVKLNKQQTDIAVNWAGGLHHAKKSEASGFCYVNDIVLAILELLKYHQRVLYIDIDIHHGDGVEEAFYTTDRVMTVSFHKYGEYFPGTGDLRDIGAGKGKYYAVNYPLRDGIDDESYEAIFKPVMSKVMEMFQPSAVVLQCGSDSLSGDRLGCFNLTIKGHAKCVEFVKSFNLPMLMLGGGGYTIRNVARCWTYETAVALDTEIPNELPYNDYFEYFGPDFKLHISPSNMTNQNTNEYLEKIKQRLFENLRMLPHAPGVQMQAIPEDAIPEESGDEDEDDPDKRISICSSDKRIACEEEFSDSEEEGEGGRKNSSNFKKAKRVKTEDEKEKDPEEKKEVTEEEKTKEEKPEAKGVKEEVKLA

Row | SMILES | IC50 [1] [nM] | IC50 [2] [nM]
1 | O=c1n(Cc2ccc(-c3nnc(C(F)F)o3)cc2F)c2ccccc2n1C1CCN(C2COC2)CC1 [Compound 16, 1-(4-(5-(difluoromethyl)-1,3,4-oxadiazole-2-yl)-2-fluorobenzyl)-3-(1-(oxetan-3-yl)piperidine-4-yl)-1,3-dihydro-2H-benzo[d]imidazole-2-one] | > 10000 | 239
2 | CC(=O)N1CCC(n2c(=O)n(Cc3ccc(-c4nnc(C(F)F)o4)cc3F)c3ccccc32)CC1 [Compound 17, 1-(1-acetylpiperidine-4-yl)-3-(4-(5-(difluoromethyl)-1,3,4-oxadiazole-2-yl)-2-fluorobenzyl)-1,3-dihydro-2H-benzo[d]imidazole-2-one] | > 10000 | 214
3 | CS(=O)(=O)N1CCC(n2c(=O)n(Cc3ccc(-c4nnc(C(F)F)o4)cc3F)c3ccccc32)CC1 [Compound 18, 1-(4-(5-(difluoromethyl)-1,3,4-oxadiazole-2-yl)-2-fluorobenzyl)-3-(1-(methylsulfonyl)piperidine-4-yl)-1,3-dihydro-2H-benzo[d]imidazole-2-one] | > 10000 | 267
4 | O=c1n(Cc2ccc(-c3nnc(C(F)F)o3)cc2F)c2ccccc2n1C1CCN(Cc2cccc3cc[nH]c23)CC1 [Compound 19, 1-(1-((1H-indole-7-yl)methyl)piperidine-4-yl)-3-(4-(5-(difluoromethyl)-1,3,4-oxadiazole-2-yl)-2-fluorobenzyl)-1,3-dihydro-2H-benzo[d]imidazole-2-one] | > 10000 | 2420
5 | CN1CCC(n2c(=O)n(Cc3ccc(-c4nnc(C(F)F)o4)cc3F)c3ccccc32)C1 (centres unmarked) [Compound 20, 1-(4-(5-(difluoromethyl)-1,3,4-oxadiazole-2-yl)-2-fluorobenzyl)-3-(1-methylpyrrolidine-3-yl)-1,3-dihydro-2H-benzo[d]imidazole-2-one] | > 10000 | 285
6 | O=c1n(Cc2ccc(-c3nnc(C(F)F)o3)cc2F)c2ccccc2n1C1CCN(C2COC2)C1 (centres unmarked) [Compound 21, 1-(4-(5-(difluoromethyl)-1,3,4-oxadiazole-2-yl)-2-fluorobenzyl)-3-(1-(oxetan-3-yl)pyrrolidine-3-yl)-1,3-dihydro-2H-benzo[d]imidazole-2-one] | > 10000 | 299
7 | CN1CC(n2c(=O)n(Cc3ccc(-c4nnc(C(F)F)o4)cc3F)c3ccccc32)C1 [Compound 22, 1-(4-(5-(difluoromethyl)-1,3,4-oxadiazole-2-yl)-2-fluorobenzyl)-3-(1-methylazetidine-3-yl)-1,3-dihydro-2H-benzo[d]imidazole-2-one] | > 10000 | 109
8 | O=c1n(Cc2ccc(-c3nnc(C(F)F)o3)cc2F)c2ccccc2n1C1CN(C2COC2)C1 [Compound 23, 1-(4-(5-(difluoromethyl)-1,3,4-oxadiazole-2-yl)-2-fluorobenzyl)-3-(1-(oxetan-3-yl)azetidine-3-yl)-1,3-dihydro-2H-benzo[d]imidazole-2-one] | > 10000 | 241
9 | O=c1n(CCN2CC3(COC3)C2)c2ccccc2n1Cc1ccc(-c2nnc(C(F)F)o2)cc1F [Compound 24] | > 10000 | 137
10 | O=c1n(CCN2CC3(COC3)C2)c2ccccc2n1Cc1ccc(-c2nnc(C(F)F)o2)cn1 [Compound 25, 1-(2-(2-oxa-6-azaspiro[3.3]heptane-6-yl)ethyl)-3-((5-(5-(difluoromethyl)-1,3,4-oxadiazole-2-yl)pyridine-2-yl)methyl)-1,3-dihydro-2H-benzo[d]imidazole-2-one] | > 10000 | 84
11 | O=c1n(CCN2CC3(COC3)C2)c2ccccc2n1Cc1ccc(-c2nnc(C(F)F)o2)cc1 [Compound 26, 1-(2-(2-oxa-6-azaspiro[3.3]heptane-6-yl)ethyl)-3-(4-(5-(difluoromethyl)-1,3,4-oxadiazole-2-yl)benzyl)-1,3-dihydro-2H-benzo[d]imidazole-2-one] | > 10000 | 209
12 | O=c1n(Cc2ccc(-c3nnc(C(F)F)o3)cc2F)c2ccccc2n1C1CC2(COC2)C1 [Compound 27, 1-(4-(5-(difluoromethyl)-1,3,4-oxadiazole-2-yl)-2-fluorobenzyl)-3-(2-oxaspiro[3.3]heptane-6-yl)-1,3-dihydro-2H-benzo[d]imidazole-2-one] | > 10000 | 110
13 | O=c1n(Cc2ccc(-c3nnc(C(F)F)o3)cn2)c2ccccc2n1C1CC2(COC2)C1 [Compound 28, 1-((5-(5-(difluoromethyl)-1,3,4-oxadiazole-2-yl)pyridine-2-yl)methyl)-3-(2-oxaspiro[3.3]heptane-6-yl)-1,3-dihydro-2H-benzo[d]imidazole-2-one] | > 10000 | 64
14 | O=c1n(Cc2ccc(-c3nnc(C(F)F)o3)cc2)c2ccccc2n1C1CC2(COC2)C1 [Compound 29, 1-(4-(5-(difluoromethyl)-1,3,4-oxadiazole-2-yl)benzyl)-3-(2-oxaspiro[3.3]heptane-6-yl)-1,3-dihydro-2H-benzo[d]imidazole-2-one] | > 10000 | 210
15 | COCCN1Cc2ccccc2N(Cc2ccc(-c3nnc(C(F)F)o3)cc2)C1=O [Compound 30, 1-(4-(5-(difluoromethyl)-1,3,4-oxadiazole-2-yl)benzyl)-3-(2-methoxyethyl)-3,4-dihydro quinazoline-2(1H)-one] | > 10000 | 444
16 | COCCN1Cc2ccccc2N(Cc2ccc(-c3nnc(C(F)F)o3)cn2)C1=O [Compound 31, 1-((5-(5-(difluoromethyl)-1,3,4-oxadiazole-2-yl)pyridine-2-yl)methyl)-3-(2-methoxyethyl)-3,4-dihydroquinazoline-2(1H)-one] | > 10000 | 108
17 | CN1CC(N2Cc3ccccc3N(Cc3ccc(-c4nnc(C(F)F)o4)cc3F)C2=O)C1 [Compound 32, 1-(4-(5-(difluoromethyl)-1,3,4-oxadiazole-2-yl)-2-fluorobenzyl)-3-(1-methylazetidine-3-yl)-3,4-dihydroquinazoline-2(1H)-one] | > 10000 | 228
18 | CN1CCC(N2Cc3ccccc3N(Cc3ccc(-c4nnc(C(F)F)o4)cc3F)C2=O)CC1 [Compound 33, 1-(4-(5-(difluoromethyl)-1,3,4-oxadiazole-2-yl)-2-fluorobenzyl)-3-(1-methylpiperidine-4-yl)-3,4-dihydroquinazoline-2(1H)-one] | > 10000 | 169
19 | O=c1n(Cc2ccc(-c3nnc(C(F)F)o3)cc2F)c2ccccc2n1C1CCOCC1 [Compound 34, 1-(4-(5-(difluoromethyl)-1,3,4-oxadiazole-2-yl)-2-fluorobenzyl)-3-(tetrahydro-2H-pyran-4-yl)-1,3-dihydro-2H-benzo[d]imidazole-2-one] | > 10000 | 235
